# Results reported in patent publication US20100028319A1, “COMPOSITION FOR PREVENTION OR TREATMENT OF DIABETES” (KANEKA CORPORATION, priority 2007, published 2010).
# How the values were obtained:
# HIT-T15 cells [1] = assay: Effects on ATP production (intracellular ATP level, ATPLite) in HIT-T15 cells; assay type: cell-based; details: 24 h + 24 h cultivation
# Experimental: Ham'F12 medium (GIBCO) containing 200 units of penicillin (GIBCO), […] streptomycin (GIBCO), and 10% fetal bovine serum (GIBCO) is normally used as a growth medium for cultivating HIT-T15 cells.
# A growth medium containing a fetal bovine serum at a concentration of 0.5% was placed in each well of a 96-well microplate, and HIT-T15 cells were seeded in the wells at a density of 1×10^4 cells/well. Next day, the growth medium of each well was replaced with a growth medium containing 0.5% fetal bovine serum, in which reduced coenzyme A was further added to a final concentration of 6.25, 12.5, 25, 50 or 100 μg/ml. Twenty-four hours later, the medium of each well was removed and replaced with a growth medium (containing 10% fetal bovine serum) in which reduced coenzyme A was added at the same concentration as mentioned above, and cultivation was continued for another 24 hours. After washing three times with PBS, the intracellular ATP level was measured using ATPLite (PerkinElmer).
# A growth medium containing a fetal bovine serum at a concentration of 0.5% was placed in each well of a 96-well microplate, and the cells were seeded in the wells at a density of 1×10^4 cells/well. Next day, the growth medium of each well was replaced with a growth medium containing 0.5% fetal bovine serum, in which reduced coenzyme A or three kinds of coenzyme A precursors (pantothenic aid, pantethine, cystein) or oxidized coenzyme A was added. The coenzyme A precursors and the oxidized coenzyme A were added at the same molar concentrations as that of the reduced coenzyme A. Twenty-four hours later, the medium of each well was removed and replaced with a growth medium (containing 10% fetal bovine serum) in which reduced coenzyme A, the coenzyme A precursor, or oxidized coenzyme A was added at the same concentration as mentioned above, and cultivation was continued for another 24 hours. After washing three times with PBS, the intracellular ATP level was measured using ATPLite (PerkinElmer).
# HIT-T15 cells [2] = assay: Glucose-responsive insulin secretion in HIT-T15 cells (ELISA); assay type: cell-based; details: 50 μg/ml reduced coenzyme A; 20 mM glucose load; supernatant collected at intervals of 30 minutes; FIG. 3
# Experimental: HIT-T15 cells were seeded in the wells of a 96-well plate at a density of 50,000 cells/100 μl medium/well. An RPMI 1640 medium (GIBCO) containing 1% fetal bovine serum and 6 mM glucose was used at this time. Twenty-four hours later, the medium of each well was replaced with an RPMI 1640 medium (containing 1% fetal bovine serum and 6 mM glucose) in which reduced coenzyme A was added to a final concentration of 50 μg/ml. Another 24 hours later, the medium of each well was replaced with an RPMI 1640 medium (containing 10% fetal bovine serum and 6 mM glucose) in which reduced coenzyme A was added to a final concentration of 50 μg/ml. Yet another 24 hours later, the wells were washed with Krebs-Ringer buffer containing 10 mM of HEPES (KRB-HEPES), and further added with 100 μl of KRB-HEPES, followed by culturing for one hour. Next, after removal of the KRB-HEPES, the wells were washed with the same buffer. To the wells was added 100 μl of KRB-HEPES containing 20 mM of glucose, and the supernatant liquid was collected at intervals of 30 minutes for storing frozen. At a later date, the insulin amount in the supernatant liquid samples was assayed using ELISA (Lebis).
# [3] = same molar concentrations, FIG. 2
smiles,measurement,setting,value
CC(C)(COP(=O)(O)OP(=O)(O)OC[C@H]1O[C@@H](n2cnc3c(N)ncnc32)[C@H](O)[C@@H]1OP(=O)(O)O)[C@@H](O)C(=O)NCCC(=O)NCCS [reduced coenzyme A],intracellular ATP level in HIT-T15 cells,"HIT-T15 cells [1]; reduced coenzyme A added at 6.25, 12.5, 25, 50 or 100 μg/ml, FIG. 1",significantly increased
same,ATP production in comparison to addition of oxidized coenzyme A,HIT-T15 cells [1]; [3],promoted ATP production significantly in comparison to addition of oxidized coenzyme A
same,"ATP production in comparison to additions of the precursors (pantothenic acid, pantethine, cystein) and a mixture of the three precursors",HIT-T15 cells [1]; [3],promoted ATP production significantly in comparison to additions of the precursors
same,glucose-responsive insulin secretion in HIT-T15 cells,HIT-T15 cells [2],significantly promoted
